Where “and” joins values, the source holds several entries; their conditions need not be identical. Identical values can stand only once. Inconclusive results and toxic doses are left out.
System: BDF1 mice, P388 leukemia ip, median survival T/C
Experiment: NCI In Vivo Anticancer Drug Screen. Data for tumor model P388 Leukemia (intraperitoneal) in B6D2F1 (BDF1) mice
Conditions: endpoint: median survival time, higher = longer survival
Summary of the method: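 In tumour-bearing mice, survival after compound treatment is set against the vehicle group and given as a quotient.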

[1] = dose: 100.0 mg/kg/injection, schedule: Q04DX003 (ip), vehicle: Klucel (hydroxypropylcellulose) (HPC)
[2] = dose: 100.0 mg/kg/injection, schedule: Q01DX009 (ip), vehicle: saline with Tween-80
[3] = dose: 200.0 mg/kg/injection, schedule: Q01DX009 (ip), vehicle: saline with Tween-80
[4] = dose: 50.0 mg/kg/injection, schedule: Q01DX009 (ip), vehicle: saline with Tween-80
[5] = dose: 25.0 mg/kg/injection, schedule: Q01DX009 (ip), vehicle: saline with Tween-80
[6] = dose: 50.0 mg/kg/injection, schedule: Q04DX003 (ip), vehicle: saline
[7] = dose: 100.0 mg/kg/injection, schedule: Q04DX003 (ip), vehicle: saline
[8] = dose: 200.0 mg/kg/injection, schedule: Q04DX003 (ip), vehicle: saline
[9] = dose: 25.0 mg/kg/injection, schedule: Q01DX009 (ip), vehicle: saline
[10] = dose: 50.0 mg/kg/injection, schedule: Q01DX009 (ip), vehicle: saline
[11] = dose: 100.0 mg/kg/injection, schedule: Q01DX009 (ip), vehicle: saline
[12] = dose: 200.0 mg/kg/injection, schedule: Q04DX003 (ip), vehicle: saline with Tween-80

CCC(=O)O[C@H]1CC[C@H]2[C@@H]3CC[C@H]4CC(=O)[C@H](C)C[C@]4(C)[C@H]3CC[C@]12C
T/C (dose: 100.0 mg/kg/injection, schedule: Q01DX009 (ip), vehicle: Klucel (hydroxypropylcellulose) (HPC)): 87 % of control
T/C [1]: 104 % of control
T/C (dose: 200.0 mg/kg/injection, schedule: Q01DX009 (ip), vehicle: Klucel (hydroxypropylcellulose) (HPC)): 95 % of control
T/C (dose: 200.0 mg/kg/injection, schedule: Q04DX003 (ip), vehicle: Klucel (hydroxypropylcellulose) (HPC)): 100 % of control
T/C (dose: 400.0 mg/kg/injection, schedule: Q01DX009 (ip), vehicle: Klucel (hydroxypropylcellulose) (HPC)): 87 % of control
T/C (dose: 400.0 mg/kg/injection, schedule: Q04DX003 (ip), vehicle: Klucel (hydroxypropylcellulose) (HPC)): 104 % of control

CC(C(=O)c1cc(O)c(O)cc1C(O)(C(F)(F)F)C(F)(F)F)C(O)(C(F)(F)F)C(F)(F)F (centres undefined)
T/C [2]: 100 % of control
T/C [3]: 100 % of control
T/C (dose: 400.0 mg/kg/injection, schedule: Q01DX009 (ip), vehicle: saline with Tween-80): 95 % of control

CCSC1(SCC)C(=O)OC2=C(CCCCCC2)C1N(C)C (centres undefined)
T/C [4]: 96 % of control
T/C [2]: 99 % of control
T/C [3]: 99 % of control

CC(C)C(=O)Nc1ccc(Cl)cc1
T/C (dose: 100.0 mg/kg/injection, schedule: Q01DX001 (ip), vehicle: saline with Tween-80): 100 % of control
T/C (dose: 200.0 mg/kg/injection, schedule: Q01DX001 (ip), vehicle: saline with Tween-80): 100 % of control
T/C (dose: 400.0 mg/kg/injection, schedule: Q01DX001 (ip), vehicle: saline with Tween-80): 100 % of control

CC1=NNC(=O)/C1=C\c1ccc(N(C)C)cc1
T/C [5]: 95 % of control
T/C [2]: 93 % of control

Nc1cc(Cl)c(O)c(Cl)c1
T/C [6]: 100 % of control
T/C [7]: 100 % of control
T/C [8]: 95 % of control

CC(C)Cn1cnc2c(SCc3ccc(Cl)cc3Cl)nc(N)nc21
T/C (dose: 66.0 mg/kg/injection, schedule: Q01DX009 (ip), vehicle: gum acacia): 112 % of control
T/C (dose: 100.0 mg/kg/injection, schedule: Q01DX009 (ip), vehicle: gum acacia): 95 % of control
T/C (dose: 100.0 mg/kg/injection, schedule: Q04DX003 (ip), vehicle: gum acacia): 88 % of control
T/C (dose: 150.0 mg/kg/injection, schedule: Q01DX009 (ip), vehicle: gum acacia): 100 % of control
T/C (dose: 200.0 mg/kg/injection, schedule: Q01DX009 (ip), vehicle: gum acacia): 104 % of control
T/C (dose: 200.0 mg/kg/injection, schedule: Q04DX003 (ip), vehicle: gum acacia): 88 % of control
T/C (dose: 400.0 mg/kg/injection, schedule: Q01DX009 (ip), vehicle: gum acacia): 120 % of control

CC(C)(C)c1cc(C(C)(C)c2ccccc2)cc(Cc2cc(C(C)(C)c3ccccc3)cc(C(C)(C)C)c2O)c1O
T/C (dose: 50.0 mg/kg/injection, schedule: Q01DX009 (ip), vehicle: saline + Tween-80 + alcohol): 118 % of control
T/C [4]: 96 % of control
T/C (dose: 100.0 mg/kg/injection, schedule: Q01DX009 (ip), vehicle: saline + Tween-80 + alcohol): 90 % of control
T/C [2]: 100 % of control
T/C (dose: 200.0 mg/kg/injection, schedule: Q01DX009 (ip), vehicle: saline + Tween-80 + alcohol): 115 % of control
T/C [3]: 124 % of control
T/C (dose: 400.0 mg/kg/injection, schedule: Q01DX009 (ip), vehicle: saline + Tween-80 + alcohol): 107 % of control

CNCC(=O)NC(CO)C(=O)NC1C(C(N)=O)OC(n2ccc(N)nc2=O)C(O)C1O (centres undefined)
T/C (dose: 0.75 mg/kg/injection, schedule: Q04DX003 (ip), vehicle: saline): 103 % of control
T/C (dose: 1.5 mg/kg/injection, schedule: Q04DX003 (ip), vehicle: saline): 112 % of control
T/C (dose: 3.0 mg/kg/injection, schedule: Q04DX003 (ip), vehicle: saline): 102 % of control

Cc1c(C#N)c2n(c1C)CCN2
T/C (dose: 6.0 mg/kg/injection, schedule: Q01DX009 (ip), vehicle: Klucel (hydroxypropylcellulose) (HPC)): 104 % of control
T/C (dose: 12.0 mg/kg/injection, schedule: Q01DX009 (ip), vehicle: Klucel (hydroxypropylcellulose) (HPC)): 86 % of control
T/C (dose: 25.0 mg/kg/injection, schedule: Q01DX009 (ip), vehicle: Klucel (hydroxypropylcellulose) (HPC)): 92 % of control and 100 % of control
T/C (dose: 25.0 mg/kg/injection, schedule: Q04DX003 (ip), vehicle: Klucel (hydroxypropylcellulose) (HPC)): 95 % of control
T/C (dose: 50.0 mg/kg/injection, schedule: Q04DX003 (ip), vehicle: Klucel (hydroxypropylcellulose) (HPC)): 100 % of control
T/C [1]: 108 % of control

CCCC(N=Cc1ccccc1O)C(=O)O.CCCC(N=Cc1ccccc1O)C(=O)O.[Fe] (centres undefined)
T/C (dose: 12.5 mg/kg/injection, schedule: Q01DX009 (ip), vehicle: saline): 86 % of control
T/C [9]: 90 % of control
T/C [10]: 90 % of control
T/C [6]: 90 % of control

COc1ccc2nc3cc(Cl)ccc3c(NCCNCCNCCNc3c4ccc(Cl)cc4nc4ccc(OC)cc34)c2c1
T/C (dose: 12.5 mg/kg/injection, schedule: Q01DX009 (ip), vehicle: saline with Tween-80): 151 % of control
T/C [5]: 171 % of control
T/C [4]: 161 % of control

Cc1noc(N)c1[N+](=O)[O-]
T/C [9]: 95 % of control
T/C [10]: 109 % of control
T/C [11]: 109 % of control

CC1OC(OC2CC(O)(C(=O)CO)Cc3c(O)c4c(c(O)c32)C(=O)c2ccccc2C4=O)CC(N)C1O (centres undefined)
T/C (dose: 216.0 micrograms/kg/injection, schedule: Q04DX003 (ip), vehicle: water): 155 % of control
T/C (dose: 360.0 micrograms/kg/injection, schedule: Q04DX003 (ip), vehicle: water): 163 % of control
T/C (dose: 600.0 micrograms/kg/injection, schedule: Q04DX003 (ip), vehicle: water): 166 % of control

C#CC(OC(=O)NC1CCCCC1)(c1ccccc1)c1ccccc1
T/C (dose: 16.5 mg/kg/injection, schedule: Q01DX009 (ip), vehicle: saline with Tween-80): 98 % of control
T/C [5]: 215 % of control
T/C (dose: 37.5 mg/kg/injection, schedule: Q01DX009 (ip), vehicle: saline with Tween-80): 213 % of control
T/C [4]: 190 % of control
T/C (dose: 88.0 mg/kg/injection, schedule: Q04DX003 (ip), vehicle: saline with Tween-80): 183 % of control
T/C (dose: 132.0 mg/kg/injection, schedule: Q04DX003 (ip), vehicle: saline with Tween-80): 187 % of control
T/C [12]: 116 % of control

CS(=O)(=O)c1nc(N)nc2nc[nH]c12
T/C (dose: 75.0 mg/kg/injection, schedule: Q04DX003 (ip), vehicle: saline): 104 % of control
T/C [11]: 115 % of control
T/C (dose: 150.0 mg/kg/injection, schedule: Q04DX003 (ip), vehicle: saline): 100 % of control
T/C (dose: 200.0 mg/kg/injection, schedule: Q01DX009 (ip), vehicle: saline): 105 % of control
T/C (dose: 300.0 mg/kg/injection, schedule: Q04DX003 (ip), vehicle: saline): 109 % of control

c1cc[c]([Sn]([O][Sn]([c]2ccccc2)([c]2ccccc2)[c]2ccccc2)([c]2ccccc2)[c]2ccccc2)cc1
T/C (dose: 25.0 mg/kg/injection, schedule: Q04DX003 (ip), vehicle: saline with Tween-80): 95 % of control

CCOC(=O)C1CC[N+](=c2cc(-c3ccc(Cl)cc3)ss2)CC1 (centres undefined)
T/C [10]: 101 % of control
T/C [6]: 106 % of control
T/C [11]: 99 % of control
T/C [7]: 116 % of control
T/C [8]: 116 % of control
T/C (dose: 400.0 mg/kg/injection, schedule: Q04DX003 (ip), vehicle: saline): 116 % of control

Nc1ncnc2c1cnn2CCCl
T/C (dose: 100.0 mg/kg/injection, schedule: Q04DX003 (ip), vehicle: saline with Tween-80): 122 % of control
T/C [12]: 118 % of control

COc1ccc(S(=O)(=O)NCCC#N)cc1NC(C)=O
T/C (dose: 100.0 mg/kg/injection, schedule: Q01DX001 (ip), vehicle: saline sonified): 100 % of control
T/C (dose: 200.0 mg/kg/injection, schedule: Q01DX001 (ip), vehicle: saline sonified): 100 % of control
T/C (dose: 400.0 mg/kg/injection, schedule: Q01DX001 (ip), vehicle: saline sonified): 100 % of control

Nc1nc2ccccc2nc1N
T/C [9]: 100 % of control
T/C (dose: 25.0 mg/kg/injection, schedule: Q04DX003 (ip), vehicle: saline): 100 % of control
T/C [10]: 100 % of control
T/C [6]: 95 % of control
T/C [11]: 90 % of control
T/C [7]: 91 % of control

Nc1nnc(N)s1
T/C (dose: 100.0 mg/kg/injection, schedule: Q04DX003 (ip), vehicle: saline sonified): 100 % of control
T/C (dose: 200.0 mg/kg/injection, schedule: Q04DX003 (ip), vehicle: saline sonified): 100 % of control
T/C (dose: 400.0 mg/kg/injection, schedule: Q04DX003 (ip), vehicle: saline sonified): 100 % of control

— PubChem BioAssay AID328 (DTP/NCI, 2004)
